Data: patent US10016515B2, “DMA, a bis-benzimidazole, confers radioprotection to the intestine via Akt/NFκB dual pathway activation” (Jawaharlal Nehru University, priority 2016, dated 2018)

Assays:
[1] = tested on: Balb/c mice spleen and small intestine; experiment: BrdU and IL6 immunohistochemistry; type: in vivo, mouse
Description: Spleen cell survival was determined 3 days after irradiation by 5-bromo-2′-deoxyuridine (BrdU, i.p., 100 mg/kg) to each mouse 2 h before euthanasia. Similarly small intestine was checked for IL6 expression. BrdU and IL6 immunohistochemistry (IHC) were performed as per standard protocol against BrdU and IL6. 3,3,-diaminobenzidine (DAB) was used to detect antigen-antibody binding. Counterstaining was done with hematoxylin, and after dehydration, slides were mounted with glycerogelatin.

[2] = Plasma pharmacokinetics of DMA; type: in vivo, mouse
Description: Oral and intravenous pharmacokinetics of DMA was performed at a dose of 100 and 50 mg/kg bw, respectively. Control mice were administered equal volume of sterile water. Blood samples were collected by cardiac puncture at 1, 2, 4, 6, 16, and 24 h after oral and intravenous administration of DMA. Plasma was spiked with Hoechst 33342 as internal standard. Plasma proteins were precipitated by adding 180 μl acetonitrile and the samples were centrifuged at 14000 rpm for 10 min at 4° C. Clear supernatant […] was taken and […] distilled water was added to get a ˜35% acetonitrile solution. The samples were injected onto HPLC-MS/MS system.
A standard DMA calibration from 1-1000 ng/ml with internal standard (20 ng/ml) was quantified. Sample analysis was performed on positive ionization mode LC-MS/MS with multiple reactions monitoring (MRM, m/z Q1/Q3) of DMA (m/z 235.1/412.0, retention time (RT) 5.3 min) and internal standard (m/z 227.1/396.0, RT 6.5 min) (Agilent 6410 series). A gradient method was employed to analyze the plasma samples using mobile phase A (0.1% formic acid in water) and mobile phase B (methanol). The B % was set as 30 (0 min), 90 (10-14 min), 30 (14-24 min) with flow rate of 0.3 ml/min. An injection volume of 10 μl was used for analysis.
Peak tissue concentration (Cmax) of DMA and time to reach the Cmax (tmax) were read directly from the raw data by visual examination of mean tissue concentration-time profile. The tissue concentration-time data following oral dose were subjected to one-, two- and three-compartmental models using WinNonlin program (version 6.3; Certara Inc, Missouri, USA) to calculate the pharmacokinetic parameters. The pharmacokinetic models were compared according to maximal correlation between observed and predicted concentration, minimal sum of squared residuals, Akaike Information Criterion (AIC) and Schwarz Bayesian Criterion (SBC). However, the tissue concentration-time data following intravenous administration were subjected to non-compartmental approach.

A549 cells = experiment: Growth kinetics with DMA prior to 6 Gy radiation; type: cell-based, human; conditions: for % growth compared to control: A549, 50 μM DMA prior to 6 Gy; for % radioprotection: A549, 6 Gy
Description: (§1) FIG. 2. Radioprotection by DMA Against Radiation in MRC5 and A549 Cell Lines. A) Proliferation of viable MRC5. B) Graphical representation of % survival of MRC5 cell line at 24 and 48 h C) A549 treated with 50 μM DMA in presence and absence of 6 Gy radiation and D) Graphical representation of % survival of A549 cell line at 24 and 48 h. Cell numbers were determined by haemocytometer at 0, 6, 12, 24 and 48 h. Values are mean (±SD) of three independent experiments. *p<0.05 compared to the control group.
(§2) 2 h subsequent to DMA treatment, cells was exposed to γ-irradiation (1.3 Gy/min dose rate) using Co-60 source (Institute of Nuclear Medicine and Allied Sciences, Delhi, India). Following irradiation, cells were incubated for 4 h in a 5% CO2 humidified incubator and processed for further sample preparation.

MRC5 cells = experiment: Growth kinetics with DMA prior to 6 Gy radiation; type: cell-based, human; conditions: for % growth compared to control: MRC5, 50 μM DMA prior to 6 Gy; for % radioprotection: MRC5, 6 Gy
Description: as §1, §2

Balb/c mice spleen = experiment: Endogenous spleen colony forming assay; type: in vivo, mouse
Description: Group 1, sham control (normal saline treated); Group 2, DMA treated (200 mg/kg bw); Group 3, radiation control (whole body exposure to 8Gy); Group 4, treated with DMA (200 mg/kg bw) prior to whole body exposure to 8Gy. Mice (6 animals each) were irradiated, 2 h post-administration of DMA. The mice were sacrificed on day 10 and spleens were removed, blotted free of blood, weighed and the spleen index was calculated [spleen index=(spleen weight/body weight)×100]. Subsequently spleens were fixed in Bouin's fixative for 15 min and the number of macroscopic spleen cell colonies was counted manually.

[3] = DMA+Radiation vs irradiated mice
[4] = Balb/c, mouse, plasma, 100 mg/kg oral

Q: Which “IL6 level in small intestine (IHC)” value ([1]; DMA only treated mice) does the source give for `COc1ccc(-c2nc3cc(-c4nc5cc(N6CCN(C)CC6)ccc5[nH]4)ccc3[nH]2)cc1OC` [DMA, 5-(4-methylpiperazin-1-yl)-2-[2′-(3,4-dimethoxyphenyl)-5′-benzimidazolyl]benzimidazole] here?
A: almost equal to control mice

Q: And the “BrdU-positive cells (IHC)” value [1, 3]?
A: more BrdU-positive cells

Q: And the “IL6 level in small intestine (IHC)” value [1, 3]?
A: higher level of IL6

Q: And the “Maximum concentration observed in plasma” value ([2]; 50 mg/kg i.v.)?
A: 4291.95 ng/mL

Q: What about the “Volume of distribution (Vss)” value ([2]; 50 mg/kg i.v.) of the same compound?
A: larger than the total blood volume of mouse

Q: What about the Plasma peak concentration ([2]; 100 mg/kg oral) of the same compound?
A: 445.8 ng/mL

Q: What about the “Time to decline to basal level in plasma” value ([2]; 100 mg/kg oral) of the same compound?
A: 16 h

Q: And the half-life ([2]; Balb/c, mouse, plasma, iv, 50 mg/kg i.v.)?
A: 2.65 h

Q: What about the Tmax [2, 4] of the same compound?
A: 1.5 h

Q: And the half-life [2, 4]?
A: 3.5 h

Q: And the AUC ([2]; Balb/c, mouse, plasma, 100 mg/kg oral, read-out: Area under curve (AUC), plasma)?
A: 669 ng·h/mL

Q: And the clearance ([2]; Balb/c, plasma, intravenous, 50 mg/kg, mouse, hepatic blood flow 5.4 L/h/kg, read-out: Systemic clearance (converted))?
A: 195 mL/min/kg

Q: What about the Clearance from plasma ([2]; oral and i.v. routes) of the same compound?
A: rapid clearance

Q: And the “% growth compared to control” value (A549 cells; 24 h)?
A: 73%

Q: What about the “% growth compared to control” value (A549 cells; 48 h) of the same compound?
A: 68%

Q: And the “% radioprotection” value (A549 cells; 24 h)?
A: 11.1%

Q: What about the “% radioprotection” value (A549 cells; 48 h) of the same compound?
A: 15%

Q: And the “% growth compared to control” value (MRC5 cells; 24 h)?
A: 58.62%

Q: And the “% growth compared to control” value (MRC5 cells; 48 h)?
A: 74%

Q: And the “% radioprotection” value (MRC5 cells; 24 h)?
A: 20.69%

Q: What about the “% radioprotection” value (MRC5 cells; 48 h) of the same compound?
A: 29%

Q: What about the Spleen index (Balb/c mice spleen; 200 mg/kg oral before 8Gy, day 10) of the same compound?
A: 0.33±0.02

Q: What about the Spleen index (Balb/c mice spleen; DMA treatment only, 200 mg/kg) of the same compound?
A: 0.41±0.05

Q: What about the “Endogenous colony forming units” value (Balb/c mice spleen; DMA+Radiation, 10th day post-irradiation) of the same compound?
A: 11.25±1.7
